Tests used:
Huh-7 [1] = assay: Induction of apoptosis in human Huh-7 cells assessed as late apoptotic cells at 25 nM incubated for 48 hrs in presence of 4,6-dimorpholino-N-(4-nitrophenyl)-1,3,5-triazin-2-amine by Annexin V-FITC/PI staining based flow cytometry method (reference value: 3.8%); type: functional
Huh-7 [2] = assay: Induction of autophagy in human Huh-7 cells assessed as reduction in mTOR phosphorylation level incubated for 48 hrs by immunoblot method; type: functional, cell-based; settings: dose 0-25 nM

## C[C@]12CC[C@H](O)C[C@H]1CC[C@@H]1[C@@H]2[C@H](O)C[C@]2(C)[C@@H](c3ccc(=O)oc3)CC[C@]12O [GAMABUFOTALIN]
Huh-7 [1]
  Activity: 6.6%
Huh-7 [2]
  Activity: Dose-Dependent Effect

From ChEMBL document CHEMBL5257089, “Gamabufotalin Induces Apoptosis and Cytoprotective Autophagy through the mTOR Signaling Pathway in Hepatocellular Carcinoma” (J Nat Prod, 2023)
